Source: ChEMBL document CHEMBL1136222, “1-Benzyloxy-4,5-dihydro-1H-imidazol-2-yl-amines, a novel class of NR1/2B subtype selective NMDA receptor antagonists” (Bioorg Med Chem Lett, 2003)

Columns and labels:
[1] = pKa value was determined; type: physicochemical
Glutamate NMDA receptor = assay: Binding affinity for N-methyl-D-aspartate glutamate receptor was measured through displacement of [3H]25-6981; type: protein-complex assay
[2] = biological target: T1, Adrenergic receptor alpha-2 (Rattus norvegicus, UniProt P22086+P19328+P22909); assay: Binding affinity towards Alpha-2 adrenergic receptor was measured through displacement of [3H]-RX-821002; type: protein assay
T1 sequence (P22086 whole entry): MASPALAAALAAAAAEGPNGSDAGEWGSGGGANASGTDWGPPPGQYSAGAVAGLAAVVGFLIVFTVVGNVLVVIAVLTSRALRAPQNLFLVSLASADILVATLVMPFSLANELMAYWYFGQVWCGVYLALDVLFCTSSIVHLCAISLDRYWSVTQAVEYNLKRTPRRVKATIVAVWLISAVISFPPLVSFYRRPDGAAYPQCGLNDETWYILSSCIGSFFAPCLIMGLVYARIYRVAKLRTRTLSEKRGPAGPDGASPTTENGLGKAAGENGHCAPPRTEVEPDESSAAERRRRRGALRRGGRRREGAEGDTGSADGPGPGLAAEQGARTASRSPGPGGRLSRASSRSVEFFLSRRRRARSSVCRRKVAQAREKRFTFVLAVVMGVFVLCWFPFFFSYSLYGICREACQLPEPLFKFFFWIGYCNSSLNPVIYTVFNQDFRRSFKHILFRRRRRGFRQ
T1 sequence (P19328 whole entry): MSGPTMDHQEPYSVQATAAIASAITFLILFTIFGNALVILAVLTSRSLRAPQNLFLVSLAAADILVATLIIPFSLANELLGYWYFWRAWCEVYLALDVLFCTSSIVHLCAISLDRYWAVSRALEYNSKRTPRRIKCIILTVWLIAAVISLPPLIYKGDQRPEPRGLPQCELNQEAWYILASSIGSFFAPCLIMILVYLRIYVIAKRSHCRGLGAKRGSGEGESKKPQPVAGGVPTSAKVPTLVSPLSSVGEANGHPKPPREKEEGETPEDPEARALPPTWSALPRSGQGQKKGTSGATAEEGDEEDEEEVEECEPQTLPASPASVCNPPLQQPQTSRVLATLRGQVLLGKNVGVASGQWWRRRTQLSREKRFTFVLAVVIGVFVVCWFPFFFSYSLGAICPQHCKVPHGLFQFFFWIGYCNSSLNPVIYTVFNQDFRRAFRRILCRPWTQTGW
T1 sequence (P22909 whole entry): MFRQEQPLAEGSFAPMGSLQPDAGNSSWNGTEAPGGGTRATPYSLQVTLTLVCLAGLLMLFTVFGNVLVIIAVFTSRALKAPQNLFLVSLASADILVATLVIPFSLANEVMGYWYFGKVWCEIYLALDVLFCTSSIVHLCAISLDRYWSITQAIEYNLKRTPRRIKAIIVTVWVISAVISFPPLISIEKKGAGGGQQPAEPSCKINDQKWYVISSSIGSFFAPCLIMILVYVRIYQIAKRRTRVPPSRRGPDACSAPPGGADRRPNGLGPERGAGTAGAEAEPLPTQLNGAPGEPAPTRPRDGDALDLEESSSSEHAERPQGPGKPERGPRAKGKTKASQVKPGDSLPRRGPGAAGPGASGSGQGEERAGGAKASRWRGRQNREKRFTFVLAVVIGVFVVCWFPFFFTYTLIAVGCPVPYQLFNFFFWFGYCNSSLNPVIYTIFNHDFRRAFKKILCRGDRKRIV

[3] = biological target: T2, Adrenergic receptor alpha-1 (Rattus norvegicus, UniProt P15823+P23944+P43140); assay: Binding affinity towards Alpha-1 adrenergic receptor was measured through displacement of [3H]prazosin; type: protein assay
T2 sequence (P15823 whole entry): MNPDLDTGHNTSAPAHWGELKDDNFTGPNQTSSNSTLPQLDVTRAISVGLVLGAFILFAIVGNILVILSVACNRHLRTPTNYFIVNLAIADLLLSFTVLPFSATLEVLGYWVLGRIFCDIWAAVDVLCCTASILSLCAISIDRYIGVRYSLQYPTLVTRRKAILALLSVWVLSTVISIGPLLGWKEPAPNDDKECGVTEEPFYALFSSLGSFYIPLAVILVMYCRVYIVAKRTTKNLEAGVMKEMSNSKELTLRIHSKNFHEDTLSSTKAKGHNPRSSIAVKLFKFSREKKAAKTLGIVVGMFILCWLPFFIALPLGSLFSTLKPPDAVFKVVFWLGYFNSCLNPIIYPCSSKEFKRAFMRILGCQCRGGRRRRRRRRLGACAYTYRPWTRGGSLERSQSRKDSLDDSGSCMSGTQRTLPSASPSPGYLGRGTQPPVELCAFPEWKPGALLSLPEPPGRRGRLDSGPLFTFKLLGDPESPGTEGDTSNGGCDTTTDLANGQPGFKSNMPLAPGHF
T2 sequence (P23944 whole entry): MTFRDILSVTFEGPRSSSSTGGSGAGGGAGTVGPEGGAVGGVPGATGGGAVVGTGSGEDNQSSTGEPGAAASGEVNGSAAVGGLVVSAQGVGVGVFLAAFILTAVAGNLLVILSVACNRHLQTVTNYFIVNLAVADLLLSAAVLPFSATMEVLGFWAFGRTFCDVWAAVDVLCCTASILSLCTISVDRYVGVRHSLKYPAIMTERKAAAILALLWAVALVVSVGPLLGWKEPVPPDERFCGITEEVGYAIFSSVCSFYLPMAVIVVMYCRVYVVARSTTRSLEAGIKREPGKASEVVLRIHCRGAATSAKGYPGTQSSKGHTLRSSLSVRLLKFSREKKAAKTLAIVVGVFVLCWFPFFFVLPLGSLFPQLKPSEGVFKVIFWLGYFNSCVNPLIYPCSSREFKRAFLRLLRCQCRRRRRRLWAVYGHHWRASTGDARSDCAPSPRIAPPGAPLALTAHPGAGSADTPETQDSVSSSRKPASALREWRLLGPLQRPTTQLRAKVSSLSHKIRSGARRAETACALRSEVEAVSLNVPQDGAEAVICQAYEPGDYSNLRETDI
T2 sequence (P43140 whole entry): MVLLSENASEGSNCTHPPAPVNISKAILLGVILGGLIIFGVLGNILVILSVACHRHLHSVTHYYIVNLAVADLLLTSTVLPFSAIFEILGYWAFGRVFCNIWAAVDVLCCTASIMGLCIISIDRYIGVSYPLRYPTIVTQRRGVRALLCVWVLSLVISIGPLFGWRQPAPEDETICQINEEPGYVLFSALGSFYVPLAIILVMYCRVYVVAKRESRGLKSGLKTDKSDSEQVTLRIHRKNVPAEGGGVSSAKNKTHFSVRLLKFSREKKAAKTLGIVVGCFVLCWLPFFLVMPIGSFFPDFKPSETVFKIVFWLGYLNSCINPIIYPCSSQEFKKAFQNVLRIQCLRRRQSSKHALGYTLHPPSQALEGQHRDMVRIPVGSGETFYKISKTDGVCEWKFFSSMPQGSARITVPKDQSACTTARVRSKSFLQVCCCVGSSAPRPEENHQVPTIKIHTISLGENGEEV

Rattus norvegicus = species on record: Rattus norvegicus; assay: Effect on K+ channels in rat cortical neurones at 10 uM; type: functional

| SMILES | Ki (Glutamate NMDA receptor) | further results |
| --- | --- | --- |
| CCCCCNC1=NCCN1CCc1ccccc1 | 0.23 µM | pKa [1]: > 12 |
| CCCCCNc1nc2ccccc2n1CCc1ccccc1 |  | pKa [1]: 7.4 |
| CCCCCNC1=NCCN1OCCCc1ccccc1 | 0.98 µM | pKa [1]: 10 |
| CCCCCNC1=NCCN1OCc1ccccc1Cl | 0.038 µM |  |
| CCCCNC1=NCCCN1OCc1ccccc1 | 0.75 µM | pKa [1]: > 12 |
| CCCCCNC1=NCCN1OCc1ccc(OC)cc1 | 0.11 µM |  |
| c1ccc(CCNC2=NCCN2OCc2ccccc2)cc1 | 1.1 µM |  |
| CCCCCNC1=NCCN1OCc1ccc(-c2ccccc2)cc1 | 1.1 µM |  |
| CCCCCNC1=NCCN1OCc1ccccc1OC | 0.28 µM |  |
| Oc1ccc(CCNC2=NCCN2OCc2ccccc2)cc1 | 0.38 µM |  |
| CCCCCNC1=NCCN1OCCc1ccccc1 |  | pKa [1]: 9.9; Ki [2]: 10 µM; Ki [3]: 4.9 µM; Effect (Rattus norvegicus): 63% |
| c1ccc(CON2CCN=C2NC2CC2)cc1 | 0.26 µM |  |
| CCCCCNC1=NCCN1OCc1ccc(C)cc1 | 0.23 µM |  |
| CCCCCNC1=NCCN1OCc1cccc(OC)c1 | 0.56 µM |  |
| CCCCCNC1=NCCN1OCc1cccc(F)c1 | 0.023 µM |  |
| c1ccc(CON2CCN=C2NCc2cccnc2)cc1 | 0.38 µM |  |
| CCCCCSC1=NCCN1OCc1ccccc1 | 6 µM | pKa [1]: 8.5 |
| CCCCCNC1=NCCN1OCc1cccc(C)c1 | 0.038 µM |  |

| SMILES | Ki (Glutamate NMDA receptor) | further results |
| --- | --- | --- |
| CCCCCNC1=NCCN1OCc1ccccc1C | 0.034 µM |  |
| CCCCNC1=NCCN1OCc1ccccc1 | 0.06 µM |  |
| CCCCCNC1=NCCN1OCc1cccc([N+](=O)[O-])c1 | 0.53 µM |  |
| CCCCCNC1=NCCN1OCc1ccc(Cl)cc1 | 0.17 µM |  |
| OCCNC1=NCCN1OCc1ccccc1 | 2.25 µM |  |
| CC(C)NC1=NCCN1OCc1ccccc1 | 5.6 µM |  |
| c1ccc(COCCNC2=NCCN2OCc2ccccc2)cc1 | 1.5 µM |  |
| CCCCCNC1=NCCN1OCc1cccs1 | 0.056 µM |  |
| CCCCCCNC1=NCCN1OCc1ccccc1 | 0.075 µM |  |
| c1ccc(CCCNC2=NCCN2OCc2ccccc2)cc1 | 0.75 µM |  |
| CCCCCNC1=NCCN1OCc1ccc([N+](=O)[O-])cc1 | 1.1 µM |  |
| c1ccc(CNC2=NCCN2OCc2ccccc2)cc1 | 0.13 µM |  |
| CCCCCNC1=NCCN1OCc1ccc(F)cc1 | 0.1 µM |  |
| CCCCC/N=C1/CCCN1CCc1ccccc1 |  | pKa [1]: > 11 |
| CCCCCNC1=NCCN1OCc1ccccc1 |  | pKa [1]: 10.1; Ki [2]: 30 µM; Ki [3]: 5.5 µM; Effect (Rattus norvegicus): 48% |
| C=CCNC1=NCCN1OCc1ccccc1 | 1.1 µM |  |
| CCCCCNC1=NCCN1OCc1ccccc1F | 0.015 µM |  |
| c1ccc(CCCCNC2=NCCN2OCc2ccccc2)cc1 | 0.38 µM |  |
